According to PMC4580410, “Characterization of Kbot21 Reveals Novel Side Chain Interactions of Scorpion Toxins Inhibiting Voltage-Gated Potassium Channels” (PLoS ONE, 2015):
Where a SMILES comes first, the peptide text is derived from it. Bridges are numbered along the chain shown (N, C = ends).

Legend:
rKV1.1 = assay: Two-electrode voltage-clamp, Xenopus oocytes expressing rKV1.1; type: cell-based, rat; details: 1 μM toxin, TEVC, n ≥ 3
Protocol: (§1) For the expression of the VGPCs (rKV1.1, rKV1.2, hKV1.3, rKV1.4, rKV1.6, Shaker IR, rKV2.1) in Xenopus oocytes, the linearized plasmids were transcribed using the T7 or SP6 mMESSAGE-mMACHINE transcription kit (Ambion, USA). The harvesting of stage V-VI oocytes from anaesthetized female Xenopus laevis frog was previously described. Oocytes were injected with 50 nl of cRNA at a concentration of 1 ng/nl using a micro-injector (Drummond Scientific, USA). The oocytes were incubated in ND96 solution containing (in mM): NaCl, 96; KCl, 2; CaCl2, 1.8; MgCl2, 2 and HEPES, 5 (pH 7.4), supplemented with 50 mg/l gentamycin sulfate. The use of the frogs was in accordance with the license number LA1210239.
(§2) Two-electrode voltage-clamp recordings were performed at room temperature (18–22°C) using a Geneclamp 500 amplifier (Molecular Devices, USA) controlled by a pClamp data acquisition system (Axon Instruments, USA). Whole cell currents from oocytes were recorded 1–4 days after injection. Bath solution composition was ND96 (in mM): NaCl, 96; KCl, 2; CaCl2, 1.8; MgCl2, 2 and HEPES, 5 (pH 7.4). Voltage and current electrodes were filled with 3 M KCl. Resistances of both electrodes were kept between 0.7–1.5 MΩ. The elicited currents were filtered at 1 kHz and sampled at 500 Hz using a four-pole low-pass Bessel filter. Leak subtraction was performed using a-P/4 protocol. […]

rKV1.2 = assay: Two-electrode voltage-clamp, Xenopus oocytes expressing rKV1.2; type: cell-based, rat; details: 1 μM toxin, TEVC, n ≥ 3
Protocol: as §1, §2

rKV1.4 = assay: Two-electrode voltage-clamp, Xenopus oocytes expressing rKV1.4; type: cell-based, rat; details: 1 μM toxin, TEVC, n ≥ 3
Protocol: as §1, §2

Shaker IR = assay: Two-electrode voltage-clamp, Xenopus oocytes expressing Shaker IR; type: cell-based, insect; details: 1 μM toxin, TEVC, n ≥ 3
Protocol: as §1, §2

rKV2.1 = assay: Two-electrode voltage-clamp, Xenopus oocytes expressing rKV2.1; type: cell-based, rat; details: 1 μM toxin, TEVC, n ≥ 3
Protocol: as §1, §2

rKV1.6 = biological target: T1, rKV1.6 (Rattus norvegicus, UniProt P17659); assay: Two-electrode voltage-clamp, Xenopus oocytes expressing rKV1.6; type: cell-based
T1 construct: expressed in transfected cells; host or cells: Xenopus laevis oocytes injected with cRNA
Protocol: as §1
Two-electrode voltage-clamp recordings were performed at room temperature (18–22°C) using a Geneclamp 500 amplifier (Molecular Devices, USA) controlled by a pClamp data acquisition system (Axon Instruments, USA). Whole cell currents from oocytes were recorded 1–4 days after injection. Bath solution composition was ND96 (in mM): NaCl, 96; KCl, 2; CaCl2, 1.8; MgCl2, 2 and HEPES, 5 (pH 7.4). Voltage and current electrodes were filled with 3 M KCl. Resistances of both electrodes were kept between 0.7–1.5 MΩ. The elicited currents were filtered at 1 kHz and sampled at 500 Hz using a four-pole low-pass Bessel filter. Leak subtraction was performed using a-P/4 protocol. KV1.1-KV1.6 and Shaker IR currents were evoked by 500 ms depolarizations to 0 mV followed by a 500 ms pulse to -50 mV, from a holding potential of -90 mV. In order to investigate the current-voltage relationship, current traces were evoked by 10 mV depolarization steps from a holding potential of -90 mV. All data represent at least 3 independent experiments (n ≥ 3) and are presented as mean ± standard error.

hKV1.3 = assay: Two-electrode voltage-clamp, Xenopus oocytes expressing hKV1.3; type: cell-based, human; details: 1 μM toxin, TEVC, n ≥ 3
Protocol: as §1, §2

C57/ Bl/6 mice = details: literature value for comparison; cited from earlier work
Protocol: We injected increasing doses, from 0.8 to 25 ng, of Kbot21 to two sets of C57bL/6 mice containing each six individuals by i.c.v. The LD50 value corresponds to […] or 1μg/kg body weight which is 5 times to other LD50 values of some scorpion peptides, such as Maurotoxin, well characterized for their activity on potassium channels (LD50 = 100 ng).

T1 sequence (P17659 whole entry): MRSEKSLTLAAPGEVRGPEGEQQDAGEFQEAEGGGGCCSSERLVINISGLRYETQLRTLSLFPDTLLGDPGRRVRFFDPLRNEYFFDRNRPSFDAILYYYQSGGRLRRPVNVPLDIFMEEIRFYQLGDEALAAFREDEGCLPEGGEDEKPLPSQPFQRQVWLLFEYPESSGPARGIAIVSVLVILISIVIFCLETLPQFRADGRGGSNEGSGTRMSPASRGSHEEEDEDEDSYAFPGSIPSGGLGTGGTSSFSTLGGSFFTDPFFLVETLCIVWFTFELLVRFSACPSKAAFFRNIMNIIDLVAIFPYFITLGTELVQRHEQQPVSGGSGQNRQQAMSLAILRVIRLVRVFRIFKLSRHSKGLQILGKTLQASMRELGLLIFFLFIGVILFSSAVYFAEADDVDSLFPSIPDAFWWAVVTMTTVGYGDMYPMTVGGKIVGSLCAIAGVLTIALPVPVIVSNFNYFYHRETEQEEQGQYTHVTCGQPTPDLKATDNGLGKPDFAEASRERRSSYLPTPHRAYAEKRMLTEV

CC[C@H](C)[C@@H]1NC(=O)[C@@H]2CSSC[C@H](NC(=O)[C@H](C)NC(=O)[C@H](C)N)C(=O)N[C@@H](Cc3ccc(O)cc3)C(=O)N[C@@H](CO)C(=O)N[C@@H](CO)C(=O)N[C@@H](CC(=O)O)C(=O)N[C@H]3CSSC[C@H](NC(=O)[C@H](CCCCN)NC(=O)[C@H](CO)NC(=O)[C@H](CC(=O)O)NC1=O)C(=O)N[C@@H](CCCCN)C(=O)N[C@H](C(=O)N[C@@H](Cc1ccc(O)cc1)C(=O)N[C@@H](CCCCN)C(=O)O)CSSC[C@H](NC(=O)[C@H](CCCCN)NC(=O)[C@H](C(C)C)NC(=O)[C@H](CCCNC(=N)N)NC3=O)C(=O)N[C@@H](CCCNC(=N)N)C(=O)N[C@@H](C)C(=O)N[C@@H](CCSC)C(=O)NCC(=O)N[C@@H](Cc1ccccc1)C(=O)N[C@@H](CO)C(=O)N[C@@H](CO)C(=O)NCC(=O)N[C@@H](CCCCN)C(=O)N2 [Kbot21] (H-AACYSSDCRVKCRAMGFSSGKCIDSKCKCYK-OH; disulfide 3-22, 8-27, 12-29 (inferred); N-terminus and C-terminus assumed)
Inhibition of potassium current (rKV1.1): completely inhibited
Inhibition of potassium current (rKV1.2): completely inhibited
Inhibition of potassium current (rKV1.4): failed to exert any activity
Inhibition of Shaker IR current (Shaker IR): 65%
Inhibition of potassium current (rKV2.1): failed to exert any activity
Reversibility of Kv1.6 block upon washout (rKV1.6; 500 nM toxin, current recovered quickly and completely upon washout, n = 3): reversible
Inhibition of potassium current (rKV1.6; 1 μM toxin, Xenopus oocytes, TEVC, n ≥ 3): completely inhibited
V1/2 (midpoint of activation) (rKV1.6; after application of 100 nM Kbot21, control 8.5 ± 0.9 mV, n ≥ 3, mean ± standard error, SEM): 6.9 ± 2.9 mV
Hill coefficient (rKV1.6; concentration-response curve on Kv1.6, mean ± standard error, n ≥ 3, SEM): 1.1 ± 0.1
Inhibition of potassium current (hKV1.3): completely inhibited

Maurotoxin: scorpion peptide well characterized for activity on potassium channels (VSCTGSKDCYAPCRKQTGCPNAKCINKSCKCYGC; UniProt P80719 1-34, looked up)
LD50 (C57/ Bl/6 mice): 100 ng
